The values below come from ChEMBL document CHEMBL1201862, “PubChem BioAssay data set” (2004).

Common to all, as to assay: DTP human tumour cell line panel, 48 h
Test [1] has as its system SK-MEL-28.
In test [2] the test system is UO-31.
Test [3] concerns SNB-75.
For test [4], the system named is CAKI-1.
The test system of test [5] is KM12.
Test [6] relates to T47D.
In test [7] the test system is SN12C.
Test [8] relates to PC-3.
The test system of test [9] is SNB-19.
Test [10] deals with SR.
In test [11] the test system is SF-539.
The subject of test [12] is LOX IMVI.
The test system of test [13] is NCI-H460.
The test system of test [14] is HCT-15.
Test [15] deals with OVCAR-8.
The test system of test [16] is MDA-MB-231.
For test [17], the system named is SK-MEL-2.
In test [18] the test system is M14.
The test system of test [19] is TK-10.
The subject of test [20] is RXF 393.

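48-hour exposure; five concentrations; linearly interpolated endpoints. The concentration for 50% growth inhibition is given as GI50.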 Calls of active or inactive are those of the source. Cut-off read from the data, not from the text of the source: active = GI50 up to about 1.1 µM and inactive = higher.

One may read the GI50 as the concentration at which growth is held to half of that of the control. Consider `C=CCn1c(-c2ccc(-c3cs/c(=N\N=O)n3CC=C)cc2)cs/c1=N\N=O`, for which the GI50 in test [1] was > 100 µM (inactive); in test [2], > 100 µM (inactive); in test [3] it was 20.9 µM (inactive); in [4], > 100 µM (inactive); in test [5] it was > 100 µM (inactive); in test [6], > 100 µM (inactive). For the same compound, the GI50 in [7] was 86.9 µM (inactive); in [8], > 100 µM (inactive); in test [9], > 100 µM (inactive); in test [10], > 100 µM (inactive); in [11] it was 94.4 µM (inactive); in [12], > 100 µM (inactive). Besides, the GI50 in [13] was > 100 µM (inactive); in test [14], more than 100 µM; in test [15] it was 88.1 µM (inactive); in test [16], 23.4 µM (inactive); in test [17] it was > 100 µM (inactive); in [18], > 100 µM (inactive). The GI50 in [19] was > 100 µM (inactive); in [20], 19.1 µM (inactive).

As to `c1ccc2c(c1)nc1n2C2CCC(C2)N1` (configuration not stated), the GI50 is > 10 µM (inactive) in test [1]; > 10 µM (inactive) in [2]; 1.87 µM (inactive) in test [3]; > 10 µM (inactive) in [4]; > 10 µM (inactive) in [6]; > 10 µM (inactive) in [7]. Also, the GI50 in test [8], in [9], in [10], in test [11], in test [12] and in test [13] was > 10 µM (inactive) in each case. Also, the GI50 is more than 10 µM in test [14]; > 10 µM (inactive) in test [15]; > 10 µM (inactive) in test [16]; > 10 µM (inactive) in test [17]; > 10 µM (inactive) in test [18]; > 10 µM (inactive) in [19]. Moreover, in test [20], the GI50 is > 10 µM (inactive).

As to `c1cc(-c2cnc(-c3ccc4c(c3)CCCO4)o2)ccn1`, the GI50 in test [1] was 18.1 µM (inactive); in [2], 12.3 µM (inactive); in test [3], 12.2 µM (inactive); in test [4] it was 15.6 µM (inactive); in [6], 16.6 µM (inactive); in test [7] it was 18.5 µM (inactive). Moreover, the GI50 in test [8] was 11.8 µM (inactive); in test [9], 11.9 µM (inactive); in test [10], 0.524 µM (active); in test [11] it was 9.1 µM (inactive); in test [12], 13.6 µM (inactive); in test [14], 16.2 µM. Moreover, the GI50 in [15] is 13.8 µM (inactive); in [16], 16.2 µM (inactive); in test [17], 11.9 µM (inactive); in test [18], 18.6 µM (inactive); in test [19], 12.7 µM (inactive); in test [20] it was 13.5 µM (inactive).

Regarding `Cc1cc(Cl)ccc1OCC(=O)Nc1nc(N)nc(N)n1`, the GI50 in test [1] was > 100 µM (inactive); in test [2], 40.7 µM (inactive); in [3], > 100 µM (inactive); in [4], > 100 µM (inactive); in test [5] it was > 100 µM (inactive); in [6], > 100 µM (inactive). Further, the GI50 in [7], in test [8], in test [9], in test [10], in test [11] and in test [12] was > 100 µM (inactive) in each case. For the same compound, the GI50 in test [13] is > 100 µM (inactive); in test [14], more than 100 µM; in test [15], > 100 µM (inactive); in test [16], > 100 µM (inactive); in test [17] it was > 100 µM (inactive); in [18], > 100 µM (inactive). Besides, the GI50 in test [19] and in [20] was > 100 µM (inactive) in each case.

Regarding `N=c1oc2ccc3ccccc3c2cc1-c1nc(O)c2ccccc2n1`, the GI50 is 95.7 µM (inactive) in test [1]; 3.23 µM (inactive) in test [2]; 2.44 µM (inactive) in test [3]; 43.5 µM (inactive) in test [4]; 11 µM (inactive) in test [5]; 30.7 µM (inactive) in test [6]. The GI50 in [7] was 74 µM (inactive); in test [8] it was 13.4 µM (inactive); in [9], 27.6 µM (inactive); in test [10] it was 26.5 µM (inactive); in test [11], 31.2 µM (inactive); in [12], 38.5 µM (inactive). Moreover, the GI50 is 32.8 µM (inactive) in [13]; 19.9 µM in test [14]; 26.7 µM (inactive) in test [15]; 24.1 µM (inactive) in test [16]; 14.4 µM (inactive) in [17]; 25.9 µM (inactive) in [18]. The GI50 in test [19] was 21 µM (inactive); in test [20] it was 10.6 µM (inactive).

With `Cc1c(N2CCCC2)cc2c(c1NC(=O)c1ccccc1Cl)C(C)(C)CC2(C)C`, the GI50 in [1] is 17.6 µM (inactive); in test [2], 13.2 µM (inactive); in test [3], 15.5 µM (inactive); in test [4] it was 13.3 µM (inactive); in [5] it was 15.3 µM (inactive); in test [6], 11.5 µM (inactive). Further, the GI50 was 16.2 µM (inactive) in test [7]; 15.5 µM (inactive) in test [8]; 15.2 µM (inactive) in [9]; 14.7 µM (inactive) in test [10]; 19.8 µM (inactive) in test [11]; 13.4 µM (inactive) in test [12]. The GI50 in test [13] is 12.3 µM (inactive); in [14] it was 14.6 µM; in test [15], 16 µM (inactive); in test [16], 15.4 µM (inactive); in test [17], 16.3 µM (inactive); in test [18], 13.5 µM (inactive). Moreover, the GI50 in test [19] is 11.1 µM (inactive); in test [20], 14.3 µM (inactive).

With `COc1cc(OC)cc(C(=O)NC2=C(Cl)C(=O)c3ccccc3C2=O)c1`, the GI50 in [1] was 2.96 µM (inactive); in test [2] it was 3.15 µM (inactive); in test [3] it was 2.67 µM (inactive); in test [4], 5.4 µM (inactive); in test [5], 1.62 µM (inactive); in test [6], 1.46 µM (inactive). In addition, the GI50 in test [7] is 3.15 µM (inactive); in [8] it was 1.23 µM (inactive); in test [9], 5.5 µM (inactive); in test [10] it was 1.06 µM (active); in [11], 4.45 µM (inactive); in test [12] it was 1.99 µM (inactive). Also, the GI50 in test [13] was 2.34 µM (inactive); in test [14], 0.94 µM; in test [15], 3.1 µM (inactive); in [16], 4.08 µM (inactive); in [17], 1.65 µM (inactive); in test [18], 1.07 µM (active). Further, the GI50 in test [19] was 2.81 µM (inactive); in [20], 1.04 µM (active).

As to `Cc1ccc(S(=O)(=O)[C@@H](Cl)[C@H]2N=C(Cl)NN=C2c2ccccc2)cc1`, the GI50 is 19.4 µM (inactive) in [1]; 18.1 µM (inactive) in test [2]; 27.9 µM (inactive) in test [3]; 41.9 µM (inactive) in test [4]; 22.6 µM (inactive) in [5]; 28.8 µM (inactive) in [6]. Also, the GI50 in test [7] was 21.7 µM (inactive); in test [8], 16.7 µM (inactive); in [9], 37.8 µM (inactive); in [10], 27.2 µM (inactive); in test [11], 30.1 µM (inactive); in test [12], 19.1 µM (inactive). Further, the GI50 in test [13] is 37.1 µM (inactive); in test [14] it was 22.2 µM; in test [15], 21.1 µM (inactive); in test [16], 20.1 µM (inactive); in test [17], 14.8 µM (inactive); in test [18] it was 21.2 µM (inactive). The GI50 is 41.8 µM (inactive) in [19] and 18.6 µM (inactive) in test [20].

With `O=C(NO)NCCCl`, the GI50 in test [2], in test [3], in [4], in test [5], in test [6] and in [7] was > 100 µM (inactive) throughout. The GI50 in test [8], in test [9], in [10], in test [11], in [12] and in [13] was > 100 µM (inactive) throughout. Moreover, the GI50 in test [14] is more than 100 µM; in test [15], > 100 µM (inactive); in test [16] it was > 100 µM (inactive); in test [17], > 100 µM (inactive); in [18] it was > 100 µM (inactive); in [19], > 100 µM (inactive). Further, in [20], the GI50 is > 100 µM (inactive).

As for `CCCCCCCCCCCCCCCCCC(=O)Nc1ccn(C2CCC(COP(=O)(O)O)O2)c(=O)n1` (configuration not stated), the GI50 in [1], in test [2], in test [3], in test [4], in test [5] and in test [6] was > 100 µM (inactive) in each case. Besides, the GI50 in test [7], in test [8], in [9], in test [10], in test [11] and in test [12] was > 100 µM (inactive) each time. Moreover, the GI50 in test [14] was more than 100 µM; in [15] it was > 100 µM (inactive); in test [16] it was > 100 µM (inactive); in test [17] it was > 100 µM (inactive); in test [18] it was > 100 µM (inactive); in test [19] it was > 100 µM (inactive). Moreover, in test [20], the GI50 is > 100 µM (inactive).

For the compound `CC(C)NC(=O)OCc1c(COC(=O)NC(C)C)n(C)c2c1ccc1cc(Cl)c(Cl)cc12`, the GI50 in test [2] was 16.7 µM (inactive); in test [3] it was 13.4 µM (inactive); in [4], 2.09 µM (inactive); in [6] it was 5.82 µM (inactive); in test [8] it was 14.9 µM (inactive); in [9], 13.4 µM (inactive). Further, the GI50 in test [10] was 2.64 µM (inactive); in test [11], 13.5 µM (inactive); in test [12], 9.23 µM (inactive); in test [13], 3.41 µM (inactive); in test [14], 12.7 µM; in test [15] it was 11.6 µM (inactive). Moreover, the GI50 in test [16] is 12.7 µM (inactive); in [17] it was 17.3 µM (inactive); in test [18], 15.5 µM (inactive); in test [19], 5.43 µM (inactive); in test [20], 12.2 µM (inactive).
